For 27 compounds, IC50, inhibition and Activity results are on record in ChEMBL document CHEMBL5032495, “Discovery of Novel Tacrine-Pyrimidone Hybrids as Potent Dual AChE/GSK-3 Inhibitors for the Treatment of Alzheimer's Disease” (J Med Chem, 2021).

Data set [1] has as its target T1, Glycogen synthase kinase-3 beta (Homo sapiens, UniProt P49841).
Target sequence in this assay (P49841 whole entry): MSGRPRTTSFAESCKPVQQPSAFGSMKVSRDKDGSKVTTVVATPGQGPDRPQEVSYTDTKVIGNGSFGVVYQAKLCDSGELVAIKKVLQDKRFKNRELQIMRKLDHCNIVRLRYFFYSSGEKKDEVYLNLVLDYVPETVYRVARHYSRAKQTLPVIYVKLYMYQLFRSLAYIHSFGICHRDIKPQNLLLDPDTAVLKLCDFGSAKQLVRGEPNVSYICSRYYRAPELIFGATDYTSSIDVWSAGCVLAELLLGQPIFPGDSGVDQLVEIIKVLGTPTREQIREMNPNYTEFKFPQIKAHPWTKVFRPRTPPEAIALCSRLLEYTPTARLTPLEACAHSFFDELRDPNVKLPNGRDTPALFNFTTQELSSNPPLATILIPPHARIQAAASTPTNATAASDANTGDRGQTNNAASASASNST
In another data set the target is T2, Acetylcholinesterase (Mus musculus, UniProt P21836).
T2 sequence (P21836 whole entry): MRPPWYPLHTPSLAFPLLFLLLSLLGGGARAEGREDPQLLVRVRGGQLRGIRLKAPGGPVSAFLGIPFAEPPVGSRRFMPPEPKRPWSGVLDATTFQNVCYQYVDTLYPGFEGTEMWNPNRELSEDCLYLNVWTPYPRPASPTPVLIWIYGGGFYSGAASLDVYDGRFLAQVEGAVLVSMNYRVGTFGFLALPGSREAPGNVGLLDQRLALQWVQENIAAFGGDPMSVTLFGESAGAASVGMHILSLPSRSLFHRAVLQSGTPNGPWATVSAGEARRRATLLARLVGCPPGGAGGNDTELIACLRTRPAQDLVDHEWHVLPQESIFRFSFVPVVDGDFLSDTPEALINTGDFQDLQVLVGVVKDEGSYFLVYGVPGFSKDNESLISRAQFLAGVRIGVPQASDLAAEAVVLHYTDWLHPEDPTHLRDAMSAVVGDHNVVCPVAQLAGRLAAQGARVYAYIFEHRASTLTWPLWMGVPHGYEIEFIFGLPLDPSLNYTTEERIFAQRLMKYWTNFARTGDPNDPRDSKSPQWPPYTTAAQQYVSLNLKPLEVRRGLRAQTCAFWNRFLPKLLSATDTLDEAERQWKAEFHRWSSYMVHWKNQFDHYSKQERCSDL
The data set is described as follows: Inhibition of mouse AChE using acetylthiocholine iodide as substrate incubated for 20 mins by Ellman's method.

For data set [2], the target named is T3, Acetylcholinesterase (Mus musculus) (UniProt P21836).
T3 sequence (whole entry): T2 sequence (P21836 whole entry)
The data set is described as follows: Inhibition of mouse AChE using acetylthiocholine iodide as substrate at 1 uM incubated for 20 mins by Ellman's method relative to control.

Data set [3] deals with T1, Glycogen synthase kinase-3 beta. The data set is described as follows: Inhibition of human recombinant GSK-3beta using prephosphorylated polypeptide as substrate incubated for 30 mins in presence of ATP by Kinase-Glo luminescence assay relative to control.
Target sequence in this assay (P49841 whole entry, looked up): as the sequence (P49841 whole entry) above
The nature of data set [4]: Toxicity in ICR mouse assessed as swimming motility impairment at 15 mg/kg, ip measured after 15 days. Format: organism-based. Conditions: in vivo, 360 h, time 15 day.
Data set [5] in a line: Toxicity in ICR mouse assessed as diarrhea at 15 mg/kg, ip measured after 15 days. Format: organism-based. The settings on record: in vivo, 360 h, time 15 day.
Data set [6] can be described thus: Toxicity in ICR mouse assessed as emesis at 15 mg/kg, ip measured after 15 days. In kind it is organism-based. The settings on record: in vivo, 360 h, time 15 day.
In data set [7] the test system is SH-SY5Y. The data set is described as follows: Neuroprotective activity against glyceraldehyde-induced neurotoxicity in human SH-SY5Y cells assessed as increase in cell viability at 0.5 to 5 uM incubated for 24 hrs by MTT assay. In kind it is functional, cell-based. The settings on record: dose 0.5-5 µM.
Data set [8] concerns SH-SY5Y. The data set is described as follows: Neuroprotective activity in human SH-SY5Y cells assessed as prevention of glyceraldehyde-induced neurite shortening at 0.5 to 5 uM incubated for 1 hr by confocal microsocopic analysis. In kind it is functional, cell-based. Conditions: dose 0.5-5 µM.

Structures are written as SMILES. The source made the active and inactive calls. No cut-off for these calls is given here. Some results are limits rather than exact numbers.

For the compound `Cn1c(NCCCCCCNc2c3c(nc4ccc(F)cc24)CCCC3)nc(-c2ccncc2F)cc1=O`, the results for the IC50 (in [1]; against Acetylcholinesterase) were 154 µM and 2210 µM, respectively.

With `Cn1c(NCCCCCCNc2c3c(nc4cc(F)ccc24)CCCC3)nc(-c2ccncc2F)cc1=O`, the IC50 in [1] was 174 µM; against Acetylcholinesterase, 134 µM.

In [1], `COc1cc2c(cc1OC)C(=O)C(CC1CCN(Cc3ccccc3)CC1)C2` (stereo unspecified) [DONEPEZIL] had an IC50 of over 100 µM.

As for `Cn1c(NCCNc2c3c(nc4ccccc24)CCCC3)nc(-c2ccncn2)cc1=O`, the IC50 was found to be 5.63 µM in [1] and 0.8 µM at Acetylcholinesterase.

`Cn1c(NCCCCCCCNc2c3c(nc4cc(F)ccc24)CCCC3)nc(-c2ccncc2F)cc1=O`: the figures for the IC50 (in data set [1]; against Acetylcholinesterase) were 104 µM and 134 µM, respectively.

As for `Cn1c(NCCCCCCNc2c3c(nc4ccccc24)CCCC3)nc(-c2ccncc2)cc1=O`, the IC50 was found to be 0.52 µM in data set [1] and 0.12 µM against Acetylcholinesterase.

Turning to `Cn1c(NCCCCCCCNc2c3c(nc4cc(Br)ccc24)CCCC3)nc(-c2ccncc2F)cc1=O`, the 50% inhibitory concentration (IC50) in [1] is 91 µM; at Acetylcholinesterase it was 58.1 µM.

Turning to `Cn1c(NCCNc2c3c(nc4ccc(Cl)cc24)CCCC3)nc(-c2ccncc2F)cc1=O`, the IC50 amounted to 8.13 µM in [1] and 9.8 µM at Acetylcholinesterase.

With `Cn1c(NCCNc2c3c(nc4ccccc24)CCCC3)nc(-c2ccncc2F)cc1=O`, the IC50 in data set [1] is 1.18 µM; against Acetylcholinesterase, 4.98 µM.

Regarding `Cn1c(NCCNc2c3c(nc4ccc(C(C)(F)F)cc24)CCCC3)nc(-c2ccncc2)cc1=O`, the inhibition in [2] and in [3] was under 50% throughout.

Turning to `Cc1ccc2c(NCCCCCCNc3nc(-c4ccncc4F)cc(=O)n3C)c3c(nc2c1)CCCC3`, the IC50 in [1] came to 239 µM; at Acetylcholinesterase, 298 µM.

Regarding `Cn1c(NCCCCCCNc2c3c(nc4cc(Cl)ccc24)CCCC3)nc(-c2ccncc2F)cc1=O`, the IC50 in [1] worked out at 178 µM; against Acetylcholinesterase, 52.7 µM.

As to `Cn1c(NCCCCCCCNc2c3c(nc4ccc(F)cc24)CCCC3)nc(-c2ccncc2F)cc1=O`, the IC50 in [1] came out at 96.1 µM; against Acetylcholinesterase, 2380 µM.

As to `Cn1c(NCCCCCNc2c3c(nc4ccccc24)CCCC3)nc(-c2ccncc2)cc1=O`, the IC50 amounted to 1.28 µM in [1] and 0.4 µM against Acetylcholinesterase.

Take `Cn1c(NCCNc2c3c(nc4ccccc24)CCCC3)nc(-c2ccncc2)cc1=O`: the IC50 in data set [1] is 4.04 µM; against Acetylcholinesterase, 1.06 µM.

Turning to `Cn1c(NCCCCCCCNc2c3c(nc4ccccc24)CCCC3)nc(-c2ccncc2)cc1=O`, the Activity result in [4], in data set [5] and in data set [6] was “Non-Toxic” throughout. The 50% inhibitory concentration (IC50) was 0.33 µM in data set [1] and 0.13 µM on Acetylcholinesterase.

For `Cc1ccc2c(NCCCCCCCNc3nc(-c4ccncc4F)cc(=O)n3C)c3c(nc2c1)CCCC3`, the IC50 in data set [1] is 137 µM; at Acetylcholinesterase, 174 µM.

Turning to `Cn1c(NCCCCCCNc2c3c(nc4ccccc24)CCCC3)nc(-c2ccncc2F)cc1=O`, the IC50 worked out at 126 µM in data set [1] and 631 µM on Acetylcholinesterase.

For `Cn1c(NCCNc2c3c(nc4cc(F)ccc24)CCCC3)nc(-c2ccncc2F)cc1=O`, the results for the IC50 (in data set [1]; against Acetylcholinesterase) were 11.9 µM and 0.73 µM, respectively.

Take `Cn1c(NCCNc2c3c(nc4ccc(Cl)cc24)CCCC3)nc(-c2ccncn2)cc1=O`: the inhibition in data set [3] was under 50%. This compound also had an IC50 on Acetylcholinesterase of 18.8 µM.

`Cn1c(NCCNc2c3c(nc4cc(Cl)ccc24)CCCC3)nc(-c2ccncc2F)cc1=O`: the IC50 in data set [1] amounted to 14 µM; at Acetylcholinesterase, 0.16 µM.

As to `COc1ccc2c(NCCNc3nc(-c4ccncc4F)cc(=O)n3C)c3c(nc2c1)CCCC3`, the IC50 is 19 µM in [1] and 9.92 µM on Acetylcholinesterase.

On to `Cn1c(NCCCCCCNc2c3c(nc4cc(Cl)ccc24)CCCC3)nc(-c2ccncc2)cc1=O`, for which the inhibition in data set [3] is under 60%. The compound further had an IC50 against Acetylcholinesterase of 53 µM.

With `Cn1c(NCCCCNc2c3c(nc4ccccc24)CCCC3)nc(-c2ccncc2)cc1=O`, the IC50 in data set [1] was 0.92 µM; against Acetylcholinesterase, 1.42 µM.

As for `O=c1sn(-c2cccc3ccccc23)c(=O)n1Cc1ccccc1`, the outcome with SH-SY5Y [7] and in the data set on SH-SY5Y [8] was Active.

In the case of `Cn1c(NCCCCCCCNc2c3c(nc4ccccc24)CCCC3)nc(-c2ccncc2F)cc1=O`, the IC50 in data set [1] turned out to be 67.2 µM; on Acetylcholinesterase it was 352 µM.

With `Cn1c(NCCCCCCNc2c3c(nc4cc(Br)ccc24)CCCC3)nc(-c2ccncc2F)cc1=O`, the IC50 in [1] was 179 µM; against Acetylcholinesterase, 70.3 µM.
